# From patent US12728123B2, “Product” (Sesh Products Inc., priority 2012, dated 2026)
# Settings: at a pH of about 8.8
smiles,measurement,value
CN1CCCC1c1cccnc1 (stereo not shown) [nicotine],nicotine in the nonprotonated form,approximately 90%
